Like-named read-outs stand apart in the source and are kept apart here.
Tests used:
[1] = molecular target: RIPK1 (Homo sapiens (Human), UniProt Q13546); test: RIPK1 ADP-Glo biochemical kinase assay
Procedure: The final reaction volume was 5.0ul.
Adding 5 μl of ADP-Glo™ terminated the reaction.

[2] = system: L929 cells; test: L929 cell necroptosis assay (TNFa + zVAD, CellTiter-Glo); type: cell-based, murine; conditions: Mus musculus
Procedure: (§1) In this example, U937 and L929 cells were exposed to compounds of the present disclosure and a cell necroptosis assay was conducted to evaluate the compounds' activity against human RIP1 and murine RIP1.
U937 and L929 cells were obtained from the American Type Culture Collection (Manassa, Va., USA). Both cells were maintained in logarithmic growth phase in complete RPMI 1640 media (Sigma, ST Louis, Mo., USA) supplemented with 10% fetal bovine serum (Sigma, ST Louis, Mo., USA) at 37° C. with 5% CO2. For necroptosis assay, L929 cells were plated for 18 h in 100 μL/well medium at 10K cells/well in Costar 96-well black clear-bottom plates (Fisher Scientific, Hampton, N.H., USA); U937 cells were plated on the day of the assay in 50 4/well medium containing 60 uM zVAD-fink (Lonza, Basel, Switzerland) at 50K cells/well. Medium from L929 cells were removed from the 96-well plates and replaced with 50 μL/well new medium containing 40 uM zVAD-fink. Each compound of the present disclosure evaluated in this example was serially diluted in DMSO from 2.5 mM in 4-fold dilutions, and then diluted 1:125 in complete medium. 50 μL/well 2× of the compound was then added to the cells in the plates. […] The relative amount of necroptosis cells was determined by luminescent using a Wallac Victor2 Luminometer (PerkinElmer, Waltham, Mass., USA) and a CellTiter-Glo® Luminescent Cell Viability Reagent Assay (Promega, Madison, Wis., USA) added per manufacturer instructions after 18 hours of TNFa stimulation at 37° C. with 5% CO2.

[3] = system: U937 cells; test: U937 cell necroptosis assay (TNFa + zVAD, CellTiter-Glo); type: cell-based, human; conditions: Homo sapiens, U-937, U937 cells, TNFa + zVAD; read-out: U937 Zvad TNF CTG Recovery, U937, TNFa + zVAD (IC50)
Procedure: as §1
U937 and L929 cells were obtained from the American Type Culture Collection (Manassa, Va., USA). Both cells were maintained in logarithmic growth phase in complete RPMI 1640 media (Sigma, ST Louis, Mo., USA) supplemented with 10% fetal bovine serum (Sigma, ST Louis, Mo., USA) at 37° C. with 5% CO2. For necroptosis assay, L929 cells were plated for 18 h in 100 μL/well medium at 10K cells/well in Costar 96-well black clear-bottom plates (Fisher Scientific, Hampton, N.H., USA); U937 cells were plated on the day of the assay in 50 4/well medium containing 60 uM zVAD-fink (Lonza, Basel, Switzerland) at 50K cells/well. Medium from L929 cells were removed from the 96-well plates and replaced with 50 μL/well new medium containing 40 uM zVAD-fink. Each compound of the present disclosure evaluated in this example was serially diluted in DMSO from 2.5 mM in 4-fold dilutions, and then diluted 1:125 in complete medium. 50 μL/well 2× of the compound was then added to the cells in the plates. The cells were pre-incubated with the compound for 1 hour at 37° C. with 5% CO2 and before addition of 10 μL/well 1 1×TNFa (Peprotech, Rocky Hill, N.J., USA) to give a final concentration of 2 ng/mL for TNFa. The relative amount of necroptosis cells was determined by luminescent using a Wallac Victor2 Luminometer (PerkinElmer, Waltham, Mass., USA) and a CellTiter-Glo® Luminescent Cell Viability Reagent Assay (Promega, Madison, Wis., USA) added per manufacturer instructions after 18 hours of TNFa stimulation at 37° C. with 5% CO2. This example establishes that embodiments of the compounds described herein have unexpectedly potent activity against human RIP1 and murine RIP1, which allows their assessment in in vivo mouse models of disease.

[4] = read-out: RIPK1 ADP-Glo Kinase (IC50)
[5] = L929, L929 cells, TNFa + zVAD, read-out: L929-CTG-recovery, L929, TNFa + zVAD (IC50)

RIPK1, sequence (Q13546 whole entry, species assumed): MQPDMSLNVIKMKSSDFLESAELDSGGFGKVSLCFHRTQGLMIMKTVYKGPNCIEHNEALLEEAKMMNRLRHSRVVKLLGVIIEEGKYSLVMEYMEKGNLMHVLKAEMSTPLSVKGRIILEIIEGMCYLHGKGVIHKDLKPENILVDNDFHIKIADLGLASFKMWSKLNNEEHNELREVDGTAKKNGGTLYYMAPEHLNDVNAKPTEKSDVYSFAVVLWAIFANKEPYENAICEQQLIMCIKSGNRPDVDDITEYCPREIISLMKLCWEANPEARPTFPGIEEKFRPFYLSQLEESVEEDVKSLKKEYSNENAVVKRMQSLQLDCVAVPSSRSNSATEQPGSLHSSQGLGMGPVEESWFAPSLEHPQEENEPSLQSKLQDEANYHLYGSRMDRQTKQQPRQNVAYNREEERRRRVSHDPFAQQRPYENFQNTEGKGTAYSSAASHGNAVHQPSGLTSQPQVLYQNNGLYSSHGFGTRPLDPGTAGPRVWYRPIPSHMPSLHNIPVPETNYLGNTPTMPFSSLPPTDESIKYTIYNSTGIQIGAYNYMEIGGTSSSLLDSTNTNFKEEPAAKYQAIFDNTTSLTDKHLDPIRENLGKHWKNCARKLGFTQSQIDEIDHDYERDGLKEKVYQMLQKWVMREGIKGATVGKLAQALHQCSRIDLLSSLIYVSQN

Row | IC50 [1, 4] [µM] | Compound | IC50 [2, 5] [µM] | IC50 [3] [µM] | IC50 ([2]; L929, read-out: L929-CTG-recovery, L929, TNFa + zVAD (IC50), L929 cells, TNFa + zVAD) [µM] | IC50 [1] [µM]
1 | 0.019 | CCOC(=O)CCc1ccc2c(c1)N(C)C(=O)[C@@H](NC(=O)c1n[nH]c(Cc3ccccc3)n1)CO2 [Compound I-1, Ethyl (S)-3-(3-(5-benzyl-1H-1,2,4-triazole-3-carboxamido)-5-methyl-4-oxo-2,3,4,5-tetrahydrobenzo[b][1,4]oxazepin-7-yl)propanoate] | 2.36 | 0.0027 | – | –
2 | 0.0197 | CCOC(=O)CCc1ccc2c(c1)N(C)C(=O)[C@@H](NC(=O)c1ncn(Cc3ccccc3F)n1)CO2 [Compound I-5, Ethyl (S)-3-(3-(1-(2-fluorobenzyl)-1H-1,2,4-triazole-3-carboxamido)-5-methyl-4-oxo-2,3,4,5-tetrahydrobenzo[b][1,4]oxazepin-7-yl)propanoate] | 0.0188 | 0.0005 | – | –
3 | 0.0724 | CN1C(=O)[C@@H](NC(=O)c2ncn(Cc3ccccc3F)n2)COc2ccc(CCC(=O)O)cc21 [Compound I-6, (S)-3-(3-(1-(2-fluorobenzyl)-1H-1,2,4-triazole-3-carboxamido)-5-methyl-4-oxo-2,3,4,5-tetrahydrobenzo[b][1,4]oxazepin-7-yl)propanoic acid] | 97.5 | 0.0438 | – | –
4 | 0.021 | CN1C(=O)[C@@H](NC(=O)c2ncn(Cc3ccccc3F)n2)COc2ccc(CCC(=O)Nc3ccc4cn[nH]c4c3)cc21 [Compound I-7, (S)—N-(7-(3-((1H-indazol-6-yl)amino)-3-oxopropyl)-5-methyl-4-oxo-2,3,4,5-tetrahydrobenzo[b][1,4]oxazepin-3-yl)-1-(2-fluorobenzyl)-1H-1,2,4-triazole-3-carboxamide] | 1.96 | 0.0009 | – | –
5 | 0.0529 | CCOC(=O)CCc1ccc2c(c1)N(C)C(=O)[C@@H](NC(=O)c1ncn(Cc3c(Cl)cccc3Cl)n1)CO2 [Compound I-8, Ethyl (S)-3-(3-(1-(2,6-dichlorobenzyl)-1H-1,2,4-triazole-3-carboxamido)-5-methyl-4-oxo-2,3,4,5-tetrahydrobenzo[b][1,4]oxazepin-7-yl)propanoate] | 0.0092 | 0.0014 | – | –
6 | 0.0429 | CN1C(=O)[C@@H](NC(=O)c2n[nH]c(Cc3ccccc3)n2)COc2ccc(CCC(=O)N3CCCC3)cc21 [Compound I-10, (S)-5-benzyl-N-(5-methyl-4-oxo-7-(3-oxo-3-(pyrrolidin-1-yl)propyl)-2,3,4,5-tetrahydrobenzo[b][1,4]oxazepin-3-yl)-1H-1,2,4-triazole-3-carboxamide] | 11.2 | 0.0079 | – | –
7 | 0.0571 | CN1C(=O)[C@@H](NC(=O)c2n[nH]c(Cc3ccccc3)n2)COc2ccc(CCC(=O)N3CCOCC3)cc21 [Compound I-11, (S)-5-benzyl-N-(5-methyl-7-(3-morpholino-3-oxopropyl)-4-oxo-2,3,4,5-tetrahydrobenzo[b][1,4]oxazepin-3-yl)-1H-1,2,4-triazole-3-carboxamide] | 14.1 | 0.0081 | – | –
8 | 0.073 | CN1C(=O)[C@@H](NC(=O)c2n[nH]c(Cc3ccccc3)n2)COc2ccc(CCCO)cc21 [Compound I-14, (S)-5-benzyl-N-(7-(3-hydroxypropyl)-5-methyl-4-oxo-2,3,4,5-tetrahydrobenzo[b][1,4]oxazepin-3-yl)-1H-1,2,4-triazole-3-carboxamide] | 5.88 | 0.0114 | – | –
9 | 0.136 | CN1C(=O)[C@@H](NC(=O)c2n[nH]c(Cc3ccccc3)n2)COc2ccc(CCCCO)cc21 [Compound I-15, (S)-5-benzyl-N-(7-(4-hydroxybutyl)-5-methyl-4-oxo-2,3,4,5-tetrahydrobenzo[b][1,4]oxazepin-3-yl)-1H-1,2,4-triazole-3-carboxamide] | 2.2 | 0.0048 | – | –
10 | 1.63 | CN1C(=O)[C@@H](NC(=O)c2n[nH]c(Cc3ccccc3)n2)COc2ccc(CCCCOCc3ccccn3)cc21 [Compound I-16, (S)-5-benzyl-N-(5-methyl-4-oxo-7-(4-(pyridin-2-ylmethoxy)butyl)-2,3,4,5-tetrahydrobenzo[b][1,4]oxazepin-3-yl)-1H-1,2,4-triazole-3-carboxamide] | 5.67 | 0.0517 | – | –
11 | 0.491 | CN1C(=O)[C@@H](NC(=O)c2n[nH]c(Cc3ccccc3)n2)COc2ccc(CCCCNc3ccccn3)cc21 [Compound I-17, (S)-5-benzyl-N-(5-methyl-4-oxo-7-(4-(pyridin-2-ylamino)butyl)-2,3,4,5-tetrahydrobenzo[b][1,4]oxazepin-3-yl)-1H-1,2,4-triazole-3-carboxamide] | 0.368 | 0.0024 | – | –
12 | 0.165 | CN1C(=O)[C@@H](NC(=O)c2ncn(Cc3c(Cl)cccc3Cl)n2)COc2ccc(CCC(=O)N3CCCC3)cc21 [Compound I-18, (S)-1-(2,6-dichlorobenzyl)-N-(5-methyl-4-oxo-7-(3-oxo-3-(pyrrolidin-1-yl)propyl)-2,3,4,5-tetrahydrobenzo[b][1,4]oxazepin-3-yl)-1H-1,2,4-triazole-3-carboxamide] | 0.28 | 0.0013 | – | –
13 | 0.145 | CN1C(=O)[C@@H](NC(=O)c2ncn(Cc3c(Cl)cccc3Cl)n2)COc2ccc(CCC(=O)NC3CC3)cc21 [Compound I-19, (S)—N-(7-(3-(cyclopropylamino)-3-oxopropyl)-5-methyl-4-oxo-2,3,4,5-tetrahydrobenzo[b][1,4]oxazepin-3-yl)-1-(2,6-dichlorobenzyl)-1H-1,2,4-triazole-3-carboxamide] | 1.3 | 0.0027 | – | –
14 | 0.153 | CN1C(=O)[C@@H](NC(=O)c2n[nH]c(Cc3ccccc3)n2)COc2ccc(CN3CCN(c4ccncc4)CC3)cc21 [Compound I-20, (S)-5-benzyl-N-(5-methyl-4-oxo-7-((4-(pyridin-4-yl)piperazin-1-yl)methyl)-2,3,4,5-tetrahydrobenzo[b][1,4]oxazepin-3-yl)-1H-1,2,4-triazole-3-carboxamide] | 53.4 | 0.0136 | – | –
15 | – | CN1C(=O)[C@@H](NC(=O)c2cc(Oc3ccccc3)ccn2)COc2cc(N3CCC4(CCOCC4)CC3)ccc21 [II-26, (S)—N-(5-methyl-4-oxo-8-(3-oxa-9-azaspiro[5.5]undecan-9-yl)-2,3,4,5-tetrahydrobenzo[b][1,4]oxazepin-3-yl)-4-phenoxypicolinamide] | – | 0.51 | – | 0.193

Row | Compound | IC50 [1, 4] [µM] | IC50 [2, 5] [µM] | IC50 [3] [µM] | IC50 ([2]; L929, read-out: L929-CTG-recovery, L929, TNFa + zVAD (IC50), L929 cells, TNFa + zVAD) [µM] | IC50 [1] [µM]
16 | CN1C(=O)[C@@H](NC(=O)c2n[nH]c(Cc3ccccc3)n2)COc2ccc(CCC(=O)Nc3ccc4cn[nH]c4c3)cc21 [Compound I-3, (S)—N-(7-(3-((1H-indazol-6-yl)amino)-3-oxopropyl)-5-methyl-4-oxo-2,3,4,5-tetrahydrobenzo[b][1,4]oxazepin-3-yl)-5-benzyl-1H-1,2,4-triazole-3-carboxamide] | 0.0402 | 0.428 | 0.0049 | – | –
17 | CN1C(=O)[C@@H](NC(=O)c2n[nH]c(Cc3ccccc3)n2)COc2ccc(CCC(=O)Nc3ccc4cccnc4c3)cc21 [Compound I-12, (S)-5-benzyl-N-(5-methyl-4-oxo-7-(3-oxo-3-(quinolin-7-ylamino)propyl)-2,3,4,5-tetrahydrobenzo[b][1,4]oxazepin-3-yl)-1H-1,2,4-triazole-3-carboxamide] | 0.052 | – | 0.0053 | 42 | –
